Read-outs that look alike come from different tables or passages of the source.

The text below walks through data of patent US20250228239A1, “MOLECULES HAVING PESTICIDAL UTILITY, AND INTERMEDIATES, COMPOSITIONS, AND PROCESSES, RELATED THERETO” (priority 2024, published 2025).

Common to all, as to type: in vivo
The test system of assay [1] is Yellow Fever Mosquito (Aedes aegypti, AEDSAE). As to conditions: for YFM rating: Table ABC / ABC-DP rating. In outline: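 Mortality after 3 days at room temperature is the read-out, scored well by well and converted to a rating. Test molecules came from 4000 ppm stocks in DMSO, further diluted in 90:10 water/acetone, and were exposed to roughly 1-day-old larvae suspended in liver-powder water.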

Assay [2] deals with Cabbage Looper (Trichoplusia ni, TRIPNI). The experiment in a line: Bioassays on Cabbage Looper (CL), 128-well diet tray assay. As to conditions: Trichoplusia ni. In outline: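 Second-instar larvae (1–5 per well) placed on artificial diet surface-treated with 50 μg/cm^2 test molecule applied in 90:10 acetone-water and dried. Held at 25° C., 14:10 light-dark, for five to seven days. Percent mortality scored per well and averaged over eight wells.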

Assay [3] concerns Beet Armyworm (Spodoptera exigua, LAPHEG). The experiment in a line: Bioassays on Beet Armyworm (BAW), 128-well diet tray assay. As to conditions: Spodoptera exigua. In outline:
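Mortality of second-instar larvae (1–5/well) on artificial diet treated with 50 μg/cm^2 compound, read after 5–7 days at 25° C.; values are means of eight wells.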

The mark [4] stands for this setting: Table ABC: Biological Results, species YFM.
The mark [5] stands for this setting: Table ABC: Biological Results, species CL, read-out: CL.
Where [6] appears, read: Table ABC: Biological Results, species BAW, read-out: BAW.
Where [7] appears, read: Yellow Fever Mosquito, rating class.
The mark [8] stands for this setting: Cabbage Looper, rating class, read-out: CL.
Setting [9] is: Beet Armyworm, rating class, read-out: BAW.
Where [10] appears, read: Cabbage Looper, Table ABC / ABC-DP rating, read-out: CL rating.
The mark [11] stands for this setting: Beet Armyworm, Table ABC / ABC-DP rating, read-out: BAW rating.

As for `O=C(Nc1ccc(F)cc1F)c1cc(NC(=O)[C@H]2[C@@H](c3cc(F)c(Cl)c(C(F)(F)F)c3)C2(Cl)Cl)ccc1Cl` (relative stereo) [F1164, cis-2-Chloro-5-(2,2-dichloro-3-(4-chloro-3-fluoro-5-(trifluoromethyl)phenyl)cyclopropane-1-carboxamido)-N-(2,4-difluorophenyl)benzamide], the YFM entry in assay [1] (setting [4]) is “A (80–100)”. For the same compound, the pest or weed control at 50 µg/cm2 in assay [2] (setting [5]) and in assay [3] (setting [6]) was 50 to 100% in each case.

Take `O=C1CCC(C(=O)Nc2c(F)ccc(NC(=O)c3cc(NC(=O)[C@H]4[C@H](c5ccc(F)c(C(F)(F)F)c5)C4(Cl)Cl)ccc3Cl)c2F)C1` (stereo partly drawn) [F1488, 2-Chloro-5-((1R,3R)-2,2-dichloro-3-(4-fluoro-3-(trifluoromethyl)phenyl)cyclopropane-1-carboxamido)-N-(2,4-difluoro-3-(3-oxocyclopentane-1-carboxamido)phenyl)benzamide]: the YFM entry in assay [1] (setting [7]) is listed as “A (80–100)”. Besides, the pest or weed control at 50 µg/cm2 in assay [2] (setting [8]) and in assay [3] (setting [9]) was 50 to 100% throughout.

As to `CC(OC(F)(F)F)C(=O)Nc1c(F)ccc(NC(=O)c2cc(NC(=O)[C@H]3[C@H](c4ccc(F)c(Br)c4)C3(Cl)Cl)ccc2Cl)c1F` (stereo partly drawn) [F1781, 5-((1R,3R)-3-(3-Bromo-4-fluorophenyl)-2,2-dichlorocyclopropane-1-carboxamido)-2-chloro-N-(2,4-difluoro-3-(2-(trifluoromethoxy)propanamido)phenyl)benzamide], in assay [1] (Yellow Fever Mosquito), the YFM rating entry is “A (80–100)”. Also, the pest or weed control at 50 µg/cm2 in assay [2] (setting [10]) and in assay [3] (setting [11]) was 50 to 100% in each case.

`CCOC(C)C(=O)Nc1c(F)ccc(NC(=O)c2cc(NC(=O)[C@H]3[C@H](c4ccc(Cl)c(C(F)(F)F)c4)C3(Cl)Cl)ccc2Cl)c1F` (stereo partly drawn) [F1660, 2-Chloro-5-((1R,3R)-2,2-dichloro-3-(4-chloro-3-(trifluoromethyl)phenyl)cyclopropane-1-carboxamido)-N-(3-(2-ethoxypropanamido)-2,4-difluorophenyl)benzamide]: in assay [1] (setting [7]), the YFM result is “A (80–100)”. In addition, the pest or weed control at 50 µg/cm2 in assay [2] (setting [8]) and in assay [3] (setting [9]) was 50 to 100% throughout.

With `COc1ccc(CNc2ccc(NC(=O)c3cc(NC(=O)[C@H]4[C@H](c5cc(Cl)cc(Cl)c5)C4(Cl)Cl)ccc3Cl)c(C)c2)cc1` (relative stereo) [F1035, trans-2-Chloro-5-(2,2-dichloro-3-(3,5-dichlorophenyl)cyclopropane-1-carboxamido)-N-(4-((4-methoxybenzyl)amino)-2-methylphenyl)benzamide], the YFM entry in assay [1] (setting [4]) was “A (80–100)”. Besides, the pest or weed control at 50 µg/cm2 in assay [2] (setting [5]) and in assay [3] (setting [6]) was 50 to 100% each time.

Consider `CCCN(C(=O)CC#N)c1c(F)ccc(NC(=O)c2cc(NC(=O)[C@H]3[C@H](c4ccc(F)c(C(F)(F)F)c4)C3(Cl)Cl)ccc2Cl)c1F` [F1841, 2-Chloro-N-(3-(2-cyano-N-propylacetamido)-2,4-difluorophenyl)-5-((1R,3R)-2,2-dichloro-3-(4-fluoro-3-(trifluoromethyl)phenyl)cyclopropane-1-carboxamido)benzamide], for which the YFM rating entry in assay [1] (Yellow Fever Mosquito) was “A (80–100)”. The pest or weed control at 50 µg/cm2 in assay [2] (setting [10]) and in assay [3] (setting [11]) was 50 to 100% throughout.

In the case of `O=C(Nc1ccc(F)cc1F)c1cc(NC(=O)[C@H]2[C@H](c3cc(Cl)cc(Cl)c3)C2(F)F)ccc1Cl` (relative stereo) [F1058, trans-2-Chloro-5-(3-(3,5-dichlorophenyl)-2,2-difluorocyclopropane-1-carboxamido)-N-(2,4-difluorophenyl)benzamide], in assay [1] (setting [4]), the YFM entry is reported as “A (80–100)”. In addition, the pest or weed control at 50 µg/cm2 in assay [2] (setting [5]) and in assay [3] (setting [6]) was 50 to 100% each time.

On to `Cc1c(NC(=O)c2cc(NC(=O)[C@H]3[C@H](c4ccc(F)c(C(F)(F)F)c4)C3(Cl)Cl)ccc2Cl)ccc(Br)c1[N+](=O)[O-]` [F1688, N-(4-Bromo-2-methyl-3-nitrophenyl)-2-chloro-5-((1R,3R)-2,2-dichloro-3-(4-fluoro-3-(trifluoromethyl)phenyl)cyclopropane-1-carboxamido)benzamide], for which the YFM result in assay [1] (setting [7]) is on record as “A (80–100)”. For the same compound, the pest or weed control at 50 µg/cm2 in assay [2] (setting [8]) and in assay [3] (setting [9]) was 50 to 100% each time.

In the case of `O=C(/C=C/C(F)(F)F)Nc1c(F)ccc(NC(=O)c2cc(NC(=O)[C@H]3[C@H](c4ccc(F)c(C(F)(F)F)c4)C3(Cl)Cl)ccc2Cl)c1F` [F1869, 2-Chloro-5-((1R,3R)-2,2-dichloro-3-(4-fluoro-3-(trifluoromethyl)phenyl)cyclopropane-1-carboxamido)-N-(2,4-difluoro-3-((E)-4,4,4-trifluorobut-2-enamido)phenyl)benzamide], the YFM rating result in assay [1] (Yellow Fever Mosquito) was “A (80–100)”. In addition, the pest or weed control at 50 µg/cm2 in assay [2] (setting [10]) and in assay [3] (setting [11]) was 50 to 100% each time.

For the compound `CC(C)(C)OC(=O)Nc1ccc(F)c(NC(=O)c2cc(NC(=O)[C@H]3[C@H](c4cc(Cl)cc(Cl)c4)C3(Cl)Cl)ccc2Cl)c1F` (relative stereo) [F1023, trans-tert-Butyl-(3-(2-chloro-5-(2,2-dichloro-3-(3,5-dichlorophenyl)cyclopropane-1-carboxamido)benzamido)-2,4-difluorophenyl)carbamate], the YFM result in assay [1] (setting [4]) is given as “A (80–100)”. Besides, the pest or weed control at 50 µg/cm2 in assay [2] (setting [5]) and in assay [3] (setting [6]) was 50 to 100% in each case.

Consider `CNNC(=O)c1cc(NC(=O)[C@H]2[C@H](c3cc(Cl)cc(Cl)c3)C2(Cl)Cl)ccc1Cl.Cl` (relative stereo) [F2521, trans-2,2-Dichloro-N-(4-chloro-3-(2-methylhydrazine-1-carbonyl)phenyl)-3-(3,5-dichlorophenyl)cyclopropane-1-carboxamide hydrochloride], for which, in assay [1] (Yellow Fever Mosquito), the YFM rating entry was “A (80–100)”. Besides, the pest or weed control at 50 µg/cm2 in assay [2] (setting [10]) and in assay [3] (setting [11]) was 50 to 100% each time.

As for `C=C(F)c1ccc(NC(=O)c2cc(NC(=O)[C@H]3[C@H](c4cc(Cl)cc(Cl)c4)C3(Cl)Cl)ccc2Cl)c(F)c1` (relative stereo) [F1320, trans-2-Chloro-5-(2,2-dichloro-3-(3,5-dichlorophenyl)cyclopropane-1-carboxamido)-N-(2-fluoro-4-(1-fluorovinyl)phenyl)benzamide], in assay [1] (setting [4]), the YFM result is reported as “A (80–100)”. Further, the pest or weed control at 50 µg/cm2 in assay [2] (setting [5]) and in assay [3] (setting [6]) was 50 to 100% in each case.

For `CN(NC(=O)c1cc(NC(=O)[C@H]2[C@H](c3cc(Cl)cc(Cl)c3)C2(Cl)Cl)ccc1Cl)c1ccccc1` [F2510, (1R,3R)-2,2-Dichloro-N-(4-chloro-3-(2-methyl-2-phenylhydrazine-1-carbonyl)phenyl)-3-(3,5-dichlorophenyl)cyclopropane-1-carboxamide], in assay [1] (Yellow Fever Mosquito), the YFM rating entry is given as “A (80–100)”. For the same compound, the pest or weed control at 50 µg/cm2 in assay [2] (setting [10]) and in assay [3] (setting [11]) was 50 to 100% each time.

Turning to `COCC(=O)N(C)c1c(F)ccc(NC(=O)c2cc(NC(=O)[C@H]3[C@H](c4ccc(Cl)c(Cl)c4)C3(Cl)Cl)ccc2Cl)c1F` [F1630, 2-Chloro-5-((1R,3R)-2,2-dichloro-3-(3,4-dichlorophenyl)cyclopropane-1-carboxamido)-N-(2,4-difluoro-3-(2-methoxy-N-methylacetamido)phenyl)benzamide], the YFM entry in assay [1] (setting [7]) was “A (80–100)”. Further, the pest or weed control at 50 µg/cm2 in assay [2] (setting [8]) and in assay [3] (setting [9]) was 50 to 100% in each case.
